Laboratory results: paper PMC12040169 (PLOS Biology, 2025)

Test: in vitro
Settings: human, hela cells, % viability

SMILES	viability at 28.5 h, 10 µM	viability at 28.5 h, 10 µM (bulk resorufin, single well)
Cc1nc2n(n1)C1=CC(C)(C)CC(=O)C1=NN2 [CBK019050]	89.2%	
O=[N+]([O-])c1cc(C(F)(F)F)ccc1N(CCO)CCO [CBK262238]	94.9%	
O=C(O)CCCn1c(-c2cccc([N+](=O)[O-])c2)nc(=S)c2c1CCCC2 [CBK265657]	101%	
NS(=O)(=O)c1ccc(NC(=O)CSc2ccc3ccccc3n2)cc1 [CBK265663]	74.6%	
O=C(c1ccccc1F)N1C2CCC1CC(O)(c1cccnc1F)C2 (stereo not shown) [CBK284420]	98.4%	
O=C(Nc1ccc(-c2ccccc2)cc1)c1cccc(S(=O)(=O)NCC2CCCO2)c1 (stereo not shown) [CBK296994]	95.7%	
CS(=O)(=O)N(CC(=O)NCc1ccccn1)c1ccc(C23CC4CC(CC(C4)C2)C3)cc1 [CBK268448]	106%	
Cc1nc(C(F)(F)F)ccc1NC(=O)CSCC(=O)O [CBK056975]	93.3%	
COc1ccc(S(=O)(=O)Nc2c(C(=O)N3CCOCC3)sc3ncccc23)cc1OC [CBK050005]	108%	
Cc1cnc(C)c(N2CCN(c3cc([C@H]4C[C@@H](N)C4)ncn3)CC2)n1 [CBK307118]	88.7%	
CCN(CC)C(=O)CN1CCC(Oc2nccnc2OCCN2CCOCC2)CC1 [CBK082928]	93.4%	
Cc1ccc(-c2n[nH]c(=S)n2CCC(=O)N(C)Cc2ccc(N3CCCCC3)cc2)cc1 [CBK297904]	106%	
CC(C)(N)C(=O)N1CC(C(=O)N2CC3(CCN(S(C)(=O)=O)CC3)c3ccccc32)C(c2cc3ccccc3o2)C1 (stereo not shown) [CBK136734T]	117%	
N#Cc1ccc(CNC(=O)N2CCCC(C(=O)O)C2)cc1 (stereo not shown) [CBK161352]	89.5%	
COc1ccc(Cl)cc1S(=O)(=O)N1CCC(C(=O)O)CC1 [CBK269607]	79.1%	
COc1ccc(C(=O)C2=C(O)C(=O)N(CCCO)C2c2ccc(Br)cc2)cc1 (stereo not shown) [CBK263769]	95.5%	
CC(NC(=O)CCn1cncn1)c1cccs1 (stereo not shown) [CBK282199]	103%	
CCOc1cccc(N2C(=O)NC(=O)/C(=C/NCCc3c[nH]c4ccccc34)C2=O)c1 [CBK265541]		106%
Cc1ccc(S(=O)(=O)Nc2ccc(N3C[C@@H](C)N[C@@H](C)C3)c3ccccc23)cc1 [CBK001486C]	87.8%	
COc1ccc(CC(=O)N2CCC(c3cccc(Cc4ccccc4C)n3)CC2)cc1 [CBK286232]	93.5%	
CCOC(=O)c1cnn(C2CCCN(Cc3cn(C)nc3C)C2)c1 (stereo not shown) [CBK304044]	89.2%	
CCOc1ccc(-n2c(SCC(=O)Nc3cc(C(=O)O)ccc3Cl)nc3ccccc3c2=O)cc1 [CBK297512]	109%	

SMILES	viability at 28.5 h, 10 µM	viability at 28.5 h, 10 µM (bulk resorufin, single well)
CC(C)CCCC(=O)n1ccn(-c2ccc(N(C)C)cc2)c1=O [CBK106603]	92.7%	
Cn1c(SCC(=O)N2CCN(Cc3ccccc3)CC2)nnc1-c1cccc([N+](=O)[O-])c1 [CBK267154]	90.6%	
Nc1nc(=O)n([C@H]2C[C@@H](O)[C@@H](CO)O2)cc1Br [CBK201161]	97.1%	
COc1cc(SC)ccc1C(=O)N[C@H]1CCN2C(=O)[C@@H](CC(=O)O)NC(=O)[C@@H]2C1 [CBK289555]	108%	
CC(C)c1ccc(C(C)NC(=O)c2cccn(CC(=O)NC3CCCC3)c2=O)cc1 (stereo not shown) [CBK286018]	91.3%	
O=C1c2ccccc2C(=O)N1CCCc1nn2c(-c3cccnc3)nnc2s1 [CBK270140]	80.2%	
CC1=C(C(=O)OCC(=O)c2ccc(C)cc2)C2C=C(Br)C=CC2N=C1c1ccc(C)cc1 (stereo not shown) [CBK264079]	94%	
O=S(=O)(c1ccc(-n2cnc(Cl)c2Cl)cc1)N1CCN(Cc2ccc(O)c(F)c2)CC1 [CBK062803]	95.8%	
Cn1c(=O)c2c(ncn2CCOc2cnc(-c3cnn(Cc4ccccc4)c3)c(N)n2)n(C)c1=O [CBK145193]	97.4%	
Cc1onc(-c2ccccc2)c1CNC(=O)c1cccc(C(F)(F)F)c1 [CBK144079]	93.6%	
CC1=CC(C)C(CN(CCC[N+](C)(C)C)C(=O)Nc2ccccc2)C(C)C1 (stereo not shown) [CBK262507I]	84.3%	
O=C(O)CCn1c2ccccc2c2ccccc21 [CBK000208]	87.7%	
O=C(c1cccc(F)c1)N1CCN(Cc2ccccn2)CC1 [CBK263023]	88.5%	
O=C(Nc1cccc2[nH]ccc12)c1ccoc1 [CBK159659]	94.8%	
COc1ccc(Cl)c(Cn2c(NCc3ccccn3)nc3c2c(=O)n(C)c(=O)n3C)c1 [CBK268965]	97.6%	
CCn1cc(-c2cncn2CCCN2CCCCC2)cn1 [CBK281767]	82.9%	
OCCN1CC2(CCN(CCc3c[nH]c4ccccc34)CC2)c2ccccc21 [CBK144607T]	94.2%	
COc1ccc([N+](=O)[O-])cc1NC(=O)N[C@@H]1CC[C@@]2(c3ccc(OC)c(OC)c3)CCN(C)[C@H]2C1 [CBK036449T]	111%	
CS(=O)(=O)c1ccc(Cn2ccnc(N3CCN(C(=O)C4CCCCC4)CC3)c2=O)cc1 [CBK153771]	90.3%	
COc1ccc(C2C(C(=O)c3ccccc3)=C(O)C(=O)N2CCN(C)C)cc1OC (stereo not shown) [CBK263352]	119%	
Cc1nc2c(c(=O)[nH]1)CCN(C(=O)c1oc3ccccc3c1C)C2 [CBK283752]	111%	
